Assay: Formation as a metabolite in the mammalian system
Parameters: species or system mammal
Details: Example 19 is formed in vivo when Example 14 is administered
Description: For example, Example 19, (5-{(E)-2-(3-{6-[1-methyl-1-(methylsulfonyl)ethyl]-8-quinolinyl}phenyl)-1-[4-(methylslfonyl)phenyl]ehtenyl}-1,2,4-oxadiazol-3-yl)methanol; [drawing 2]
is administered. Accordingly, the present invention includes prodrugs that form PDE4 inhibitors in vivo as a metabolite after administering such prodrugs to a mammal. Further, this invention includes a method of treatment by a step of administering a prodrug to form in vivo an effective amount of a PDE4 inhibitor described by Formula I.

Structure (SMILES) | metabolite formation in vivo
CC(C)(c1cc(-c2cccc(/C=C(\c3ccc(S(C)(=O)=O)cc3)c3nc(CO)no3)c2)c2ncccc2c1)S(C)(=O)=O [Example 19, (5-{(E)-2-(3-{6-[1-methyl-1-(methylsulfonyl)ethyl]-8-quinolinyl}phenyl)-1-[4-(methylsulfonyl)phenyl]ethenyl}-1,2,4-oxadiazol-3-yl)methanol] | formed as a metabolite in the mammalian system
Cc1noc(/C(=C/c2cccc(-c3cc(C(C)(C)S(C)(=O)=O)cc4cccnc34)c2)c2ccc(S(C)(=O)=O)cc2)n1 [Example 14, 6-[1-methyl-1-(methylsulfonyl)ethyl]-8-(3-{(E/Z)-2-(3-methyl-1,2,4-oxadiazol-5-yl)-2-[4-(methylsulfonyl)phenyl]ethenyl}phenyl)quinoline] | formed in vivo as a metabolite
